This passage reports IC50 results from ChEMBL document CHEMBL3882244, “IL-8 Receptor Antagonists” (2007).

Each structure is given as a SMILES string. Some results are limits rather than exact numbers.

Assay [1] deals with T1, C-X-C chemokine receptor type 2 (Homo sapiens, UniProt P25025).
T1 sequence (P25025 whole entry): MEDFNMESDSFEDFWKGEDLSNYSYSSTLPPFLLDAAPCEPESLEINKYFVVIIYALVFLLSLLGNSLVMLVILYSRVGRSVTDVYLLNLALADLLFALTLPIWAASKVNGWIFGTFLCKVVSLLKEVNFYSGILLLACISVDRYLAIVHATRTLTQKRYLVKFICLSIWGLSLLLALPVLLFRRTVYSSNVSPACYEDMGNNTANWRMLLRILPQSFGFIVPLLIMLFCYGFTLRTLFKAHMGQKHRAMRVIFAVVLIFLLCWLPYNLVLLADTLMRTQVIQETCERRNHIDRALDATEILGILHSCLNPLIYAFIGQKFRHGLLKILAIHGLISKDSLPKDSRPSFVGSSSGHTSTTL
Put plainly: Displacement of [125I]IL8 from recombinant human CXCR2 expressed in CHO cell membranes measured after 1 hr by TopCount scintillation counting method.

In assay [2] the target is T1, C-X-C chemokine receptor type 2. Put plainly: Antagonist activity at CXCR2 (unknown origin) expressed in CHO-K1 cells co-expressing Galpha-16 assessed as inhibition of IL8-induced calcium mobilization measured after 10 mins by Fluo-4AM dye based FLIPR assay. The class given is functional, cell-based.
The subject of a further assay is Blood. Put plainly: Inhibition of GROalpha-induced CD11b integrin expression on human neutrophils in human whole blood pretreated for 10 mins followed by GROalpha challenge measured after 10 mins by FITC/PE staining based flow cytometry. The class given is functional, tissue-based.

As for `CCc1ccccc1NC(=O)Nc1ccc(Cl)c(S(=O)(=O)[C@@H]2CCNC2)c1O`, the results for the IC50 in assay [1] and in assay [2] were less than 30000 nM and 5 to 600 nM, respectively.
Consider `O=C(Nc1cccnc1Cl)Nc1ccc(Cl)c(S(=O)(=O)C2CCNCC2)c1O`, for which, in assay [2], the IC50 fell in the range of 5 to 600 nM.
In the case of `O=C(Nc1ccc(Cl)c(S(=O)(=O)C2CCNCC2)c1O)Nc1cccc2c1OC(F)(F)O2`, the IC50 in assay [1] was less than 30000 nM; in assay [2] it was 5 to 600 nM.
In the case of `CCOC(=O)N1CCC(S(=O)(=O)c2c(Cl)ccc(NC(=O)Nc3cccc(F)c3Cl)c2O)CC1`, the IC50 in assay [2] is 5 to 600 nM.
Take `Cc1c(F)cccc1NC(=O)Nc1ccc(Cl)c(S(=O)(=O)C2CNC2)c1O`: the IC50 in assay [1] was less than 30000 nM; in assay [2], 5 to 600 nM.
For `O=C(Nc1ccccc1Oc1ccccc1)Nc1ccc(Cl)c(S(=O)(=O)[C@H]2CCNC2)c1O`, the IC50 in the assay on Blood lay within 500 to 2000 nM; in assay [2], 5 to 600 nM.
With `O=C(Nc1ccc(Cl)c(S(=O)(=O)CC2CCNC2)c1O)Nc1cccc(F)c1Cl` (configuration not stated), the IC50 in assay [2] lay in the range of 5 to 600 nM.
In the case of `O=C(Nc1ccccc1Oc1ccccc1)Nc1ccc(Cl)c(S(=O)(=O)C2C[C@H]3CC[C@@H](C2)N3)c1O` (some centres not stated), the figures for the IC50 in assay [1] and in assay [2] were less than 30000 nM and 5 to 600 nM, respectively.
Regarding `O=C(Nc1ccc(Cl)c(S(=O)(=O)[C@H]2CCNC2)c1O)Nc1cccc(F)c1Cl`, the IC50 in assay [2] is 5 to 600 nM.
On the same count and under the same terms, for `O=C(Nc1ccccc1OC(F)(F)F)Nc1ccc(Cl)c(S(=O)(=O)[C@@H]2CCNC2)c1O` the value was 5 to 600 nM.
In the case of `O=C(Nc1ccc(Cl)c(S(=O)(=O)C2CCCNC2)c1O)Nc1cccc(Cl)c1Cl` (configuration not stated), the results for the IC50 in assay [1] and in assay [2] were less than 30000 nM and 5 to 600 nM, respectively.
Turning to `CCc1ccccc1NC(=O)Nc1ccc(Cl)c(S(=O)(=O)C2CCCNC2)c1O` (configuration not stated), in assay [2], the IC50 was in the range of 5 to 600 nM.
Same read-out and setting: the result for `O=C(Nc1ccccc1OC(F)(F)F)Nc1ccc(Cl)c(S(=O)(=O)C2CCNCC2)c1O` reads 5 to 600 nM.
In the case of `O=C(Nc1cccnc1Cl)Nc1ccc(Cl)c(S(=O)(=O)C2CCCNC2)c1O` (configuration not stated), the IC50 in the assay with Blood was in the range of 500 to 2000 nM; in assay [2], 5 to 600 nM.
`CCc1ccccc1NC(=O)Nc1ccc(Cl)c(S(=O)(=O)C2CCNCC2)c1O`: the IC50 in assay [1] was less than 30000 nM; in assay [2], 5 to 600 nM.
As to `CCOC(=O)N1CCC(S(=O)(=O)c2c(Cl)ccc(NC(=O)Nc3cccc(F)c3C)c2O)CC1`, in assay [2], the IC50 was 5 to 600 nM.
The same measure, in the same setting: the result for `O=C(Nc1ccc(Cl)c(S(=O)(=O)C2C[C@H]3CC[C@@H](C2)N3)c1O)Nc1cccc(F)c1Cl` (some centres not stated) reads 5 to 600 nM.
With `Cc1c(F)cccc1NC(=O)Nc1ccc(Cl)c(S(=O)(=O)[C@@H]2C[C@H]3CC[C@@H](C2)N3C)c1O`, the half-maximal inhibitory concentration (IC50) is less than 30000 nM in assay [1] and 5 to 600 nM in assay [2].
For the compound `Cc1c(F)cccc1NC(=O)Nc1ccc(Cl)c(S(=O)(=O)CC2CCNC2)c1O` (configuration not stated), the IC50 was less than 30000 nM in assay [1] and 5 to 600 nM in assay [2].
Take `O=C(Nc1ccccc1Oc1ccccc1)Nc1ccc(Cl)c(S(=O)(=O)C2CCNCC2)c1O`: the IC50 in assay [2] was in the range of 5 to 600 nM.
Still for that read-out and setting: for `O=C(Nc1cccnc1Cl)Nc1ccc(Cl)c(S(=O)(=O)C2C[C@H]3CC[C@@H](C2)N3)c1O` (some centres not stated) the value was 5 to 600 nM.
Turning to `O=C(Nc1cccnc1Cl)Nc1ccc(Cl)c(S(=O)(=O)[C@H]2CCCNC2)c1O`, the half-maximal inhibitory concentration (IC50) in assay [1] was less than 30000 nM; in the assay with Blood, 500 to 2000 nM.
On to `O=C(Nc1ccc(Cl)c(S(=O)(=O)[C@@H]2CCNC2)c1O)Nc1cccc2c1OC(F)(F)O2`, for which the IC50 in assay [2] was 5 to 600 nM.
For the compound `O=C(Nc1ccccc1OC(F)(F)F)Nc1ccc(Cl)c(S(=O)(=O)CC2CCNC2)c1O` (configuration not stated), the values for the IC50 in assay [1] and in assay [2] were less than 30000 nM and 5 to 600 nM, respectively.
For `O=C(Nc1ccccc1OC(F)(F)F)Nc1ccc(Cl)c(S(=O)(=O)C2CCCNC2)c1O` (configuration not stated), the IC50 in assay [2] was in the range of 5 to 600 nM.
Regarding `O=C(Nc1ccc(Cl)c(S(=O)(=O)C2CNC2)c1O)Nc1cccc(F)c1Cl`, the IC50 in assay [2] lay in the range of 5 to 600 nM.
Consider `Cc1c(F)cccc1NC(=O)Nc1ccc(Cl)c(S(=O)(=O)C2C[C@H]3CC[C@@H](C2)N3)c1O` (some centres not stated), for which, in assay [2], the IC50 lay within 5 to 600 nM.
As for `O=C(Nc1cccnc1Cl)Nc1ccc(Cl)c(S(=O)(=O)C2CNC2)c1O`, the IC50 in assay [1] is less than 30000 nM; in assay [2], 5 to 600 nM.
For `CCOC(=O)N1CCC(S(=O)(=O)c2c(Cl)ccc(NC(=O)Nc3ccccc3Oc3ccccc3)c2O)CC1` the same measures were less than 30000 nM and 5 to 600 nM.
With `O=C(Nc1ccc(Cl)c(S(=O)(=O)[C@H]2CCCNC2)c1O)Nc1cccc(F)c1Cl`, the IC50 was in the range of 500 to 2000 nM with Blood and 5 to 600 nM in assay [2].
Turning to `O=C(Nc1ccc(Cl)c(S(=O)(=O)[C@@H]2CCNC2)c1O)Nc1cccc(F)c1Cl`, the IC50 in assay [1] was less than 30000 nM; in assay [2], 5 to 600 nM.
For `O=C(Nc1ccc(Cl)c(S(=O)(=O)C2CCNCC2)c1O)Nc1cccc(F)c1Cl`, the half-inhibitory concentration (IC50) was less than 30000 nM in assay [1], 500 to 2000 nM in the assay on Blood and 5 to 600 nM in assay [2].
The matching figures for `Cc1c(F)cccc1NC(=O)Nc1ccc(Cl)c(S(=O)(=O)C2CCNCC2)c1O`: less than 30000 nM, 500 to 2000 nM and 5 to 600 nM.
On to `Cc1c(F)cccc1NC(=O)Nc1ccc(Cl)c(S(=O)(=O)[C@H]2CCNC2)c1O`, for which the IC50 in assay [2] was 5 to 600 nM.
On to `O=C(Nc1cccnc1Cl)Nc1ccc(Cl)c(S(=O)(=O)[C@H]2CCNC2)c1O`, for which the figures for the IC50 (with Blood; in assay [2]) were 500 to 2000 nM and 5 to 600 nM, respectively.
For `Cc1c(F)cccc1NC(=O)Nc1ccc(Cl)c(S(=O)(=O)[C@H]2CCCNC2)c1O` [DANIRIXIN], the IC50 in the assay with Blood lay within 500 to 2000 nM.
